Among the data in PubChem BioAssay AID1259407 (Chemical Carcinogenesis Research Information System (CCRIS), 2018) are mutagenic call values, retold here.

Activity calls are given as the source filed them. How the calls were made is not given here.

For the data set, the system named is CCRIS mutagenicity, Ames/micronucleus/aberration tests. The data set is described as follows: CCRIS mutagenicity studies.
Where [1] appears, read: Test System: AMES SALMONELLA TYPHIMURIUM, Strain/Indicator: TA98, Metabolic Activation: NONE, Method: PREINCUBATION

In the case of `Oc1ccc2ccc3cc4ccccc4c4ccc1c2c34`, the mutagenic call runs as follows: under setting [1], “inactive; negative”; (Test System: AMES SALMONELLA TYPHIMURIUM, Strain/Indicator: TA98, Metabolic Activation: RAT, LIVER, S-9, AROCLOR 1254, Method: PREINCUBATION) “active; positive”; (Test System: AMES SALMONELLA TYPHIMURIUM, Strain/Indicator: TA98, Metabolic Activation: RAT, LUNG, S-9, Method: PREINCUBATION) “active; positive”; (Test System: CHINESE HAMSTER V-79, Strain/Indicator: V-79/8-AZAGUANINE, Metabolic Activation: NONE, Method: STANDARD PLATE) “active; positive”; (Test System: CHINESE HAMSTER V-79, Strain/Indicator: V-79/OUABAIN, Metabolic Activation: NONE, Method: STANDARD PLATE) “active; positive”.
Take `COP(=O)(OC)OC`: the mutagenic call (Test System: AMES SALMONELLA TYPHIMURIUM, Strain/Indicator: TA98, Metabolic Activation: HAMSTER, LIVER, S-9, AROCLOR 1254 (30%), Method: PREINCUBATION) is “inactive; negative”; the mutagenic call under setting [1] was “inactive; negative”; the mutagenic call (Test System: AMES SALMONELLA TYPHIMURIUM, Strain/Indicator: TA98, Metabolic Activation: RAT, LIVER, S-9, AROCLOR 1254 (30%), Method: PREINCUBATION) is “inactive; negative”; the mutagenic call (Test System: AMES SALMONELLA TYPHIMURIUM, Strain/Indicator: TA100, Metabolic Activation: HAMSTER, LIVER, S-9, AROCLOR 1254 (30%), Method: PREINCUBATION) was “active; positive”; the mutagenic call (Test System: AMES SALMONELLA TYPHIMURIUM, Strain/Indicator: TA100, Metabolic Activation: NONE, Method: PREINCUBATION) was “inactive; negative”; the mutagenic call (Test System: AMES SALMONELLA TYPHIMURIUM, Strain/Indicator: TA100, Metabolic Activation: RAT, LIVER, S-9, AROCLOR 1254 (30%), Method: PREINCUBATION) is “active; positive”. Besides, the mutagenic call was “inactive; negative” (Test System: AMES SALMONELLA TYPHIMURIUM, Strain/Indicator: TA102, Metabolic Activation: NONE, Method: STANDARD PLATE); “active; positive” (Test System: AMES SALMONELLA TYPHIMURIUM, Strain/Indicator: TA2638, Metabolic Activation: NONE, Method: STANDARD PLATE); “active; positive” (Test System: E. COLI, Strain/Indicator: WP2 (PKM101), Metabolic Activation: NONE, Method: STANDARD PLATE); “active; positive” (Test System: E. COLI, Strain/Indicator: WP2 UVRA (PKM101), Metabolic Activation: NONE, Method: STANDARD PLATE).
In the case of `Cc1cc(-c2ccc(N/N=C3\C=Cc4c(S(=O)(=O)O)cc(S(=O)(=O)O)c(N)c4C3=O)c(C)c2)ccc1N/N=C1\C=Cc2c(S(=O)(=O)O)cc(S(=O)(=O)O)c(N)c2C1=O`, the mutagenic call reads like this: (Test System: AMES SALMONELLA TYPHIMURIUM, Strain/Indicator: TA98, Metabolic Activation: HAMSTER, LIVER, S-9, Method: PREINCUBATION (PRIVAL METHOD)) “active; positive”; (Test System: AMES SALMONELLA TYPHIMURIUM, Strain/Indicator: TA100, Metabolic Activation: HAMSTER, LIVER, S-9, Method: PREINCUBATION (PRIVAL METHOD)) “active; positive”; (Test System: MOUSE LYMPHOMA, Strain/Indicator: L5178Y (TK+/TK-), Metabolic Activation: NONE, Method: SUSPENSION/PLATE) “active; positive. reevaluation of results: equivocal”; (Test System: Mouse lymphoma, Strain/Indicator: L5178Y (tk+/tk-), Metabolic Activation: Rat, Liver, S-9, Aroclor 1254, Method: Suspension/plate) “inactive; negative”.
Take `COC1=CC(=O)c2c(nc(C)c3c2[nH]c2ccccc23)C1=O`: the mutagenic call (Test System: AMES SALMONELLA TYPHIMURIUM, Strain/Indicator: TA97, Metabolic Activation: NONE, Method: STANDARD PLATE) was “active; positive”; the mutagenic call (Test System: AMES SALMONELLA TYPHIMURIUM, Strain/Indicator: TA97, Metabolic Activation: RAT, LIVER, S-9, AROCLOR 1254, Method: STANDARD PLATE) was “active; positive”; the mutagenic call (Test System: AMES SALMONELLA TYPHIMURIUM, Strain/Indicator: TA97A, Metabolic Activation: NONE, Method: STANDARD PLATE) is “active; positive”; the mutagenic call (Test System: AMES SALMONELLA TYPHIMURIUM, Strain/Indicator: TA97A, Metabolic Activation: RAT LIVER S-9, AROCLOR 1254, Method: STANDARD PLATE) was “active; positive”; the mutagenic call (Test System: AMES SALMONELLA TYPHIMURIUM, Strain/Indicator: TA98, Metabolic Activation: NONE, Method: STANDARD PLATE) was “active; positive”; the mutagenic call (Test System: AMES SALMONELLA TYPHIMURIUM, Strain/Indicator: TA98, Metabolic Activation: RAT LIVER S-9, AROCLOR 1254, Method: STANDARD PLATE) is “active; positive”. For the same compound, the mutagenic call is, setting by setting: (Test System: AMES SALMONELLA TYPHIMURIUM, Strain/Indicator: TA98, Metabolic Activation: RAT, LIVER, S-9, AROCLOR 1254, Method: STANDARD PLATE) “active; positive”; (Test System: AMES SALMONELLA TYPHIMURIUM, Strain/Indicator: TA100, Metabolic Activation: NONE, Method: STANDARD PLATE) “active; positive”; (Test System: AMES SALMONELLA TYPHIMURIUM, Strain/Indicator: TA100, Metabolic Activation: RAT LIVER S-9, AROCLOR 1254, Method: STANDARD PLATE) “active; positive”; (Test System: AMES SALMONELLA TYPHIMURIUM, Strain/Indicator: TA100, Metabolic Activation: RAT, LIVER, S-9, AROCLOR 1254, Method: STANDARD PLATE) “active; positive”; (Test System: AMES SALMONELLA TYPHIMURIUM, Strain/Indicator: TA102, Metabolic Activation: RAT LIVER S-9, AROCLOR 1254, Method: STANDARD PLATE) “inactive; negative”; (Test System: AMES SALMONELLA TYPHIMURIUM, Strain/Indicator: TA102, Metabolic Activation: RAT, LIVER, S-9, AROCLOR 1254, Method: STANDARD PLATE) “inactive; negative”.
